No end group written: not given here.
Experiments:
[1] = tested on: Micrococcus luteus (DSM20030); assay: Growth inhibition assay (MIC), M. luteus; format: cell-based; conditions: 384-well plates, LB, 30 °C, peptide 0.015–250 µM; MIC = concentration at which growth was totally inhibited; average of n ≥ 3; dash = no inhibition
Method: (§1) The minimal inhibitory concentration (MIC) of each AMPs was determined against the Gram-positive bacteria Listeria monocytogenes (DSM20600), L. grayi (DSM20601), L. fleischmannii (DSM24998), Staphylococcus aureus (DSM2569) and Micrococcus luteus (DSM20030), and the Gram-negative species Escherichia coli (D31) and Pseudomonas aeruginosa (DSM50071). The scorpion peptides were prepared at concentrations of 0.015–250 μM. The assays were carried out in 384-well plates (Greiner Bio One, Frickenhausen, Germany) using Brain Heart Infusion Broth (BHIB) medium for Listeria spp., Tryptic Soy Broth (TSB) for S. aureus, and lysogeny broth (LB) for the others. The bacteria were cultivated overnight at either 37 °C (Listeria spp., S. aureus, E. coli and P. aeruginosa) or 30 °C (M. luteus) and subcultured in fresh media before the growth inhibition assays. Growth inhibition was measured as previously described.

Escherichia coli (D31) = assay: Growth inhibition assay (MIC), E. coli; format: cell-based; conditions: 384-well plates, LB, 37 °C, peptide 0.015–250 µM; growth totally inhibited; average of n ≥ 3; dash = no inhibition
Method: as §1

L. grayi (DSM20601) = assay: Growth inhibition assay (MIC), L. grayi; format: cell-based, Listeria grayi; conditions: 384-well plates, BHIB, 37 °C, peptide 0.015–250 µM; growth totally inhibited; average of n ≥ 3; dash = no inhibition
Method: as §1

[2] = tested on: L. fleischmannii (DSM24998); assay: Growth inhibition assay (MIC), L. fleischmannii; format: cell-based, Listeria fleischmannii; conditions: 384-well plates, BHIB, 37 °C, peptide 0.015–250 µM; growth totally inhibited; average of n ≥ 3; dash = no inhibition
Method: as §1

[3] = tested on: Listeria monocytogenes (DSM20600); assay: Growth inhibition assay (MIC), L. monocytogenes; format: cell-based; conditions: 384-well plates, BHIB, 37 °C, peptide 0.015–250 µM; growth totally inhibited; average of n ≥ 3; dash = no inhibition
Method: as §1

[4] = tested on: Pseudomonas aeruginosa (DSM50071); assay: Growth inhibition assay (MIC), P. aeruginosa; format: cell-based; conditions: LB, 37 °C, highest concentration tested 250 µM
Method: as §1

pig erythrocytes = assay: Hemolytic activity on pig erythrocytes; format: cell-based; conditions: 1 h at 37 °C; for HC10 (hemolytic concentration) / HC90 (hemolytic concentration) / HC50 (hemolytic concentration): 6.25–100 µM, absorbance 570 nm, non-linear fit; for HC10 (hemolytic concentration) / HC90 (hemolytic concentration): n ≥ 3; for HC50 (hemolytic concentration): n ≥ 3, n.c. (100) = not convergent at 100 µM
Method: The hemolytic activity of each AMP was determined using pig erythrocytes. Serial dilutions (6.25–100 µM) of each AMP were prepared, and after incubation for 1 h at 37 °C the cells were centrifuged and the absorbance of the supernatant was measured at 570 nm using an Eon Microplate Spectrophotometer (BioTek Instruments, Winooski, VT, USA). Three independent experiments were carried out for each concentration in triplicate. PBS and 10% Triton X–100 were used as negative and positive controls, respectively. The percentage hemolysis was calculated using the formula 100((Apeptide–APBS)/(Atriton–APBS)). The AMP concentration causing 50% hemolysis (HC50) of the pig erythrocytes was determined by non-linear regression with the data fitted to the logistical sigmoidal equation, using GraphPad Prism v5.0 (GraphPad Software, San Diego, CA, USA) (Figure S2).

[5] = Cytotoxicity, alamarBlue, BHK-21 cells; format: cell-based, hamster; conditions: hamster, 2 h at 37 °C, 0.1–100 µM, alamarBlue fluorescence, non-linear fit, concentration reducing viability by 50%, n ≥ 3, read-out: EC50 (effective cytotoxic concentration)
Method: (§2) Cytotoxicity was evaluated using the baby hamster kidney cell line (BHK-21) included in F2H®-Kit Basic (Chromotek, Planegg-Martinsried, Germany). The BHK-21 cells were grown in 25-cm^2 cell culture flasks (Greiner Bio One, Frickenhausen, Germany) containing Dulbecco’s Modified Eagle’s Medium (DMEM) supplemented with 4.5 g/L glucose, 110 mg/L sodium pyruvate and L-glutamine, and 10% fetal bovine serum (FBS), and were maintained in an NU-5810 incubator (ibs tecnomara, Fernwald, Germany) at 37 °C with a 5% CO2 atmosphere. The cells were subcultured at ~90% confluence by detaching with 0.25% trypsin and 0.03% EDTA (Sigma-Aldrich, St Louis, MO, USA). The AMPs were dissolved in water and diluted to final concentrations of 0.1, 1, 10 and 100 µM in DMEM.
(§3) BHK-21 cells were prepared and tested as previously described. Confluent cells were detached, counted and seeded at a concentration of 8.5 × 10^4 cell/mL in a 96-well culture plate (Greiner Bio One-Cell Star) 48 h before each experiment. The cells were rinsed with 100 µL PBS before adding 100 µL of the AMP solution and incubating for 2 h at 37 °C. The AMP solution was then removed and the cells were rinsed again with PBS before staining with 10% v/v alamarBlue™ Dye (Thermo Fisher Scientific, Schwerte, Germany) in DMEM for 1 h. The fluorescence of the metabolized alamarBlue™ Dye was measured in an Eon microplate reader using excitation and emission filters of 528 and 590 nm, respectively. DMEM and cells exposed to DMEM without AMPs were included as a blank reference and negative control, respectively. Four independent experiments were carried out for each AMP concentration in triplicate. To assess the percentage of viable cells compared to the control, the data were analyzed with GraphPad Prism v5.0 software using non-linear regression to fit the curve (Figure S2). The EC50 was reported as the AMP concentration that reduces cell viability by 50%.

[6] = tested on: baby hamster kidney cells (BHK21); assay: Cytotoxicity, alamarBlue, BHK-21 cells; format: cell-based; conditions: 2 h at 37 °C, 0.1–100 µM, alamarBlue fluorescence, non-linear fit, n ≥ 3
Method: as §2, §3

seven different bacteria = assay: Antibacterial activity against all seven bacteria tested (summary); format: cell-based; conditions: approximate overall value
Method: as §1

Substance	MIC M. luteus [1] [µM]	MIC E. coli (Escherichia coli (D31)) [µM]	MIC L. grayi (L. grayi (DSM20601)) [µM]	MIC L. fleischmannii [2] [µM]	MIC L. monocytogenes [3] [µM]	MIC P. aeruginosa (concentration inhibiting growth) [4] [µM]	HC10 (hemolytic concentration) (pig erythrocytes) [µM]	HC90 (hemolytic concentration) (pig erythrocytes)	HC50 (hemolytic concentration) (pig erythrocytes) [µM]	CC50 at 2 h [5] [µM]	EC10 (effective cytotoxic concentration) [6] [µM]	EC90 (effective cytotoxic concentration) [6] [µM]	MIC against all seven bacteria tested (seven different bacteria)	percentage of hemolysis (pig erythrocytes; 100 µM peptide (highest tested), 10% Triton X-100 = 100% hemolysis)
GFWGKLWEGVKNAI-NH2 [UyCT1]	1	4	4	4	4	60	31.5	644.46 µM	142.5	17.4	0.65	52.12	~ 4 µM	
GFWGKLWEGVKNAIKKK-NH2 [D11]	0.25	4	1	1	2	30	39.76	30,984.53 µM	1110	17.8	0.66	53.43	~ 1 µM	~ 10%
